Assay results: PMC5923142, “Selection and Characterization of Rupintrivir-Resistant Norwalk Virus Replicon Cells In Vitro” (Antimicrobial Agents and Chemotherapy, 2018)

Legend:
Norwalk virus replicon = experiment: Replicon clearance from HGT-NV cells over 12 days without G418 (qRT-PCR); type: cell-based, Human norovirus (HuNoV) GI; conditions: 12 days posttreatment, no G418
Experimental: To confirm the previously reported inhibitory effects of rupintrivir on human norovirus replication ([10]), we generated a human gastric adenocarcinoma cell line, HGT-NV, which stably maintained a Norwalk virus replicon encoding the neomycin resistance gene in place of the major capsid protein. The effects of rupintrivir on norovirus RNA replication in the replicon cells were evaluated by quantitative reverse transcription-PCR (qRT-PCR). […] To determine the concentration of rupintrivir sufficient to completely eliminate the norovirus replicon from HGT-NV cells, we treated the replicon cells with 2.5, 5, and 10 μM rupintrivir in the absence of G418 for up to 12 days. The replicon cells were passaged on days 3, 8, and 12, and the levels of replicon RNA were quantified by qRT-PCR. […] To further characterize the inhibitory effects of rupintrivir, we performed a colony formation assay with replicon cells treated with rupintrivir for 12 days. […]
The inhibitory effect of rupintrivir on HuNoV replication was assessed by quantification of the levels of GI NuNoV RNA and β-actin RNA as the reference gene. […] The real-time quantitative reverse transcription-PCR (qRT-PCR) assay was performed by using a One-Step Plus qRT-PCR kit according to the protocol of the manufacturer (Primer Design). […] Relative quantification was performed using the 2^−ΔΔCT threshold cycle (CT) method ([38]). […]

GI WT protease = target: T1, GI WT protease (Norovirus, UniProt Q83883); experiment: Cell-based FRET assay, GI WT protease; parameters: species or system norovirus GI.1 (M87661); conditions: HEK293T cells, GI NS1/2-NS3 FRET substrate; read-out: 50% inhibitory concentration (IC50)
T1 construct: plasmids expressing norovirus protease from GI.1 (M87661); expressed in transfected cells; host or cells: HEK293T
T1 sequence (Q83883 1101-1281): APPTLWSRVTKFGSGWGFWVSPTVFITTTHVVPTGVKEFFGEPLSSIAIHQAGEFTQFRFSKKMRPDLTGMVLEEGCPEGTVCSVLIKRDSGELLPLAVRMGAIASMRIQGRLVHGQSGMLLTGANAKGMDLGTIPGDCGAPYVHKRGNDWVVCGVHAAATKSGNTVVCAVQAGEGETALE
Excerpt: (§1) The generation of plasmids expressing norovirus protease from GI.1 (M87661), GII.4 (DQ658413), or GV (DQ285629) norovirus and FRET assay constructs has been described previously ([18]). The plasmids carrying GI, GII, and GV proteases with the A105V, I109V, or A105V/I109V mutation were generated from the wild-type (WT) protease constructs described above by the QuikChange site-directed mutagenesis method. Mutant MNV genomes for reverse genetics were generated by two-step PCR mutagenesis of the WT MNV genome (pT7 MNV 3RZ) construct as described previously ([27]). The primers used for generation of the plasmids are listed in Tables S1 and S2 in the supplemental material.
(§2) The YFP/CFP ratio was used to determine FRET efficiency, as described previously ([18], [40]). Briefly, HEK293T cells were plated into black 96-well cell culture microplates (Greiner Bio-One) at a density of 5 × 10^4 cells/well in 100 μl of DMEM containing 10% fetal bovine serum with or without various concentrations of rupintrivir and then incubated for 4 h in a CO2 incubator at 37°C. […] The plates were then analyzed on a SpectraMax i3 instrument in fluorescence mode, with excitation set at 434 nm and the reading emissions set at 477 nm (CFP) and 527 nm (YFP). The background fluorescence from wells transfected with pcDNA3.1 was determined and subtracted. […]

HRV2 N165T = system: HRV2 N165T; parameters: method as in PMID 17908951; conditions: serial passage of HRV2 for 62 days; cited from earlier work
[1] = target: T2, GV A105V/I109V mutant protease (Norovirus, UniProt Q80J95, A1099V/I1103V); experiment: Cell-based FRET assay, GV A105V/I109V protease; parameters: species or system murine norovirus (MNV) GV (DQ285629)
T2 construct: plasmids expressing norovirus protease from GI.1 (M87661), GII.4 (DQ658413), or GV (DQ285629) norovirus; expressed in transfected cells; host or cells: HEK293T
T2 sequence (Q80J95 995-1177 A1099V/I1103V): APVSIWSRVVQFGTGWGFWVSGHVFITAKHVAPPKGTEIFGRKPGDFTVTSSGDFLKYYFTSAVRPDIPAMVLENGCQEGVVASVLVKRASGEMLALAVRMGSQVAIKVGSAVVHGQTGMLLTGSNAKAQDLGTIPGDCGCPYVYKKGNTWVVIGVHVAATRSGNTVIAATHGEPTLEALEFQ
Excerpt: as §1, §2

CCOC(=O)/C=C/[C@H](C[C@@H]1CCNC1=O)NC(=O)[C@@H](CC(=O)[C@@H](NC(=O)c1cc(C)on1)C(C)C)Cc1ccc(F)cc1 [rupintrivir, Rupintrivir]
level of replicon RNA (Norwalk virus replicon; 5 μM): below the limit of quantification | level of replicon RNA (Norwalk virus replicon; 10 μM): below the limit of quantification | IC50 (GI WT protease): 1.3 ± 0.4 µM | fold reduced susceptibility (HRV2 N165T): 2 fold | IC50 ([1]; HEK293T cells, GV NS1/2-NS3 FRET substrate): 2.3 ± 0.3 µM | fold increase in IC50 ([1]; vs GV WT protease): 2.3 fold
